Measured values as given in ChEMBL document CHEMBL5625228, “Design, synthesis, and bioactivity evaluation of novel amide/sulfonamide derivatives as potential anti-inflammatory agents against acute lung injury and ulcerative colitis” (Eur J Med Chem, 2023).
Calls of active or inactive are those of the source. No cut-off for these calls is given here.

Key:
J774.A1 [1] = assay: Antiinflammatory activity against mouse J774.A1 cells assessed as inhibition of LPS-induced TNF-alpha production pretreated with compound for 30 mins followed by LPS induction and measured after 24 hrs by ELISA analysis; assay type: functional; conditions: for inhibition (INH): time 1470 min, 24.5 h; for inhibition: time 1470.0 min; for INH: test concentration or dose not given here
J774.A1 [2] = assay: Antiinflammatory activity against mouse J774.A1 cells assessed as inhibition of LPS-induced IL-6 production pretreated with compound for 30 mins followed by LPS induction and measured after 24 hrs by ELISA analysis; assay type: functional; conditions: for inhibition (INH): time 1470 min, 24.5 h; for inhibition: time 1470.0 min; for INH: test concentration or dose not given here
J774.A1 [3] = assay: Antiinflammatory activity against mouse J774.A1 cells assessed as inhibition of LPS-induced IL-6 release preincubated with compound for 30 mins followed by LPS-induction and measured after 24 hrs by ELISA analysis; assay type: functional, cell-based
J774.A1 [4] = assay: Antiinflammatory activity against LPS-induced mouse J774.A1 cells assessed as effect on IL-6 mRNA level preincubated with compound for 30 mins followed by LPS-induction and measured after 6 hrs by qPCR analysis; assay type: functional, cell-based; conditions: time 390.0 min
J774.A1 [5] = assay: Antiinflammatory activity against mouse J774.A1 cells assessed as inhibition of LPS-induced TNF-alpha release preincubated with compound for 30 mins followed by LPS-induction and measured after 24 hrs by ELISA analysis; assay type: functional, cell-based
J774.A1 [6] = assay: Antiinflammatory activity against LPS-induced mouse J774.A1 cells assessed as downregulation of IL-6 mRNA level preincubated with compound for 30 mins followed by LPS-induction and measured after 6 hrs by qPCR analysis; assay type: functional, cell-based; conditions: time 390.0 min
J774.A1 [7] = assay: Antiinflammatory activity against LPS-induced mouse J774.A1 cells assessed as downregulation of TNF-alpha mRNA level preincubated with compound for 30 mins followed by LPS-induction and measured after 6 hrs by qPCR analysis; assay type: functional, cell-based; conditions: time 390.0 min

COc1ccc(CN2CCN(CC(=O)NCc3ccccn3)CC2)cc1
inhibition (INH) (J774.A1 [1]): 38.64%
inhibition (INH) (J774.A1 [2]): 3.21%

COc1ccc(NS(=O)(=O)CCN2CCN(Cc3cccc([N+](=O)[O-])c3)CC2)cn1
inhibition (INH) (J774.A1 [1]): 34.88%
inhibition (INH) (J774.A1 [2]): 30.6%

O=C(CN1CCN(Cc2ccc([N+](=O)[O-])cc2)CC1)Nc1cccc2ccccc12
inhibition (INH) (J774.A1 [1]): 44.12%
inhibition (INH) (J774.A1 [2]): 51.42%

O=[N+]([O-])c1ccc(N2CCN(CCS(=O)(=O)Nc3ccc4ncccc4c3)CC2)cc1
inhibition (INH) (J774.A1 [1]): 41.31%
inhibition (INH) (J774.A1 [2]): 63.27%

O=C(CN1CCN(c2ccc([N+](=O)[O-])cc2)CC1)Nc1ccccn1
inhibition (INH) (J774.A1 [1]): 41.4%
inhibition (INH) (J774.A1 [2]): 54.4%

O=[N+]([O-])c1ccc(CN2CCN(CCS(=O)(=O)Nc3cccc4ccccc34)CC2)cc1
inhibition (INH) (J774.A1 [1]): 52.22%
inhibition (INH) (J774.A1 [2]): 51.66%

COc1ccc(CN2CCN(CC(=O)Nc3ccc(OC)nc3)CC2)cc1
inhibition (INH) (J774.A1 [1]): 38.65%
inhibition (INH) (J774.A1 [2]): 19.35%

COc1ccc(NS(=O)(=O)CCN2CCN(c3ncccn3)CC2)cn1
inhibition (INH) (J774.A1 [1]): 37.77%
inhibition (INH) (J774.A1 [2]): 42%

COc1ccc(NC(=O)CN2CCN(Cc3cnc(NC(C)=O)s3)CC2)cn1
inhibition (INH) (J774.A1 [1]): 53.08%
inhibition (INH) (J774.A1 [2]): 47.13%

O=C(CCN1CCN(c2ccc([N+](=O)[O-])cc2)CC1)NCc1ccccn1
inhibition (INH) (J774.A1 [1]): 20.88%
inhibition (INH) (J774.A1 [2]): 19.64%

O=C(CN1CCN(c2ccc([N+](=O)[O-])cc2)CC1)Nc1cccc2ccccc12
inhibition (INH) (J774.A1 [1]): 17.43%
inhibition (INH) (J774.A1 [2]): 17.67%

O=[N+]([O-])c1cc(S(=O)(=O)NCc2ccccn2)ccc1N1CCN(Cc2ccccc2)CC1
IC50 (J774.A1 [3]): 4.94 µM
Activity (J774.A1 [4]): inactive
inhibition (INH) (J774.A1 [1]): 50.22%
inhibition (INH) (J774.A1 [2]): 69.3%
IC50 (J774.A1 [5]): 10.1 µM

O=S(=O)(CCN1CCN(Cc2ccccc2)CC1)Nc1ccc2ncccc2c1
inhibition (INH) (J774.A1 [1]): 9.54%
inhibition (INH) (J774.A1 [2]): 43.09%

O=C(CCN1CCN(c2ccc([N+](=O)[O-])cc2)CC1)Nc1cccc2ccccc12
inhibition (J774.A1 [1]): inactive
inhibition (J774.A1 [2]): inactive

CC(=O)Nc1ncc(CN2CCN(c3ccc(S(=O)(=O)NCc4ccccn4)cc3[N+](=O)[O-])CC2)s1
inhibition (INH) (J774.A1 [1]): 31.13%
inhibition (INH) (J774.A1 [2]): 40.3%

O=C(CN1CCN(Cc2ccccc2)CC1)NCc1ccccn1
inhibition (INH) (J774.A1 [1]): 40.91%
inhibition (INH) (J774.A1 [2]): 23.3%

O=[N+]([O-])c1cc(S(=O)(=O)NCc2ccccn2)ccc1N1CCN(c2ncccn2)CC1
inhibition (INH) (J774.A1 [1]): 18.24%
inhibition (INH) (J774.A1 [2]): 20.86%

O=[N+]([O-])c1ccc(CN2CCN(CCS(=O)(=O)Nc3ccc4ncccc4c3)CC2)cc1
inhibition (INH) (J774.A1 [1]): 24.49%
inhibition (INH) (J774.A1 [2]): 58.07%

COc1ccc(CN2CCN(CC(=O)Nc3cccc4ccccc34)CC2)cc1
inhibition (J774.A1 [1]): inactive
inhibition (J774.A1 [2]): inactive

COc1cc(-c2csc(NC(=O)CCN3CCN(Cc4cccc([N+](=O)[O-])c4)CC3)n2)ccc1O
inhibition (INH) (J774.A1 [1]): 41.39%
inhibition (INH) (J774.A1 [2]): 78.47%

COc1ccc(CN2CCN(CCS(=O)(=O)Nc3cccc4ccccc34)CC2)cc1
inhibition (INH) (J774.A1 [1]): 38.07%
inhibition (INH) (J774.A1 [2]): 46.54%

COc1ccc(CN2CCN(CCS(=O)(=O)Nc3ccc4ncccc4c3)CC2)cc1
inhibition (INH) (J774.A1 [1]): 31.97%
inhibition (INH) (J774.A1 [2]): 50.52%

O=S(=O)(CCN1CCN(c2ncccn2)CC1)Nc1cccc2ccccc12
inhibition (INH) (J774.A1 [1]): 12.33%
inhibition (INH) (J774.A1 [2]): 10.6%

COc1ccc(NS(=O)(=O)CCN2CCN(Cc3ccc([N+](=O)[O-])cc3)CC2)cn1
inhibition (INH) (J774.A1 [1]): 38.83%
inhibition (INH) (J774.A1 [2]): 42.48%

O=C(CN1CCN(Cc2ccccc2)CC1)Nc1cccc2ccccc12
inhibition (INH) (J774.A1 [1]): 40.65%
inhibition (INH) (J774.A1 [2]): 37.08%

COc1ccc(NC(=O)CN2CCN(Cc3ccc([N+](=O)[O-])cc3)CC2)cn1
inhibition (INH) (J774.A1 [1]): 37.85%
inhibition (INH) (J774.A1 [2]): 35.43%

O=S(=O)(CCN1CCN(Cc2ccccc2)CC1)NCc1ccccn1
inhibition (INH) (J774.A1 [1]): 43.92%
inhibition (INH) (J774.A1 [2]): 54.87%

COc1ccc(NS(=O)(=O)CCN2CCN(c3ccc([N+](=O)[O-])cc3)CC2)cn1
inhibition (INH) (J774.A1 [1]): 47.01%
inhibition (INH) (J774.A1 [2]): 54.03%

O=S(=O)(CCN1CCN(c2ncccn2)CC1)Nc1ccc2ncccc2c1
inhibition (INH) (J774.A1 [1]): 5.34%
inhibition (INH) (J774.A1 [2]): 23.7%

CC(=O)Nc1ncc(CN2CCN(CC(=O)NCc3ccccn3)CC2)s1
inhibition (INH) (J774.A1 [1]): 36.32%
inhibition (INH) (J774.A1 [2]): 19.68%

O=S(=O)(CCN1CCN(c2ncccn2)CC1)NCc1ccccn1
inhibition (INH) (J774.A1 [1]): 40.39%
inhibition (INH) (J774.A1 [2]): 50.45%

COc1ccc(CN2CCN(CCS(=O)(=O)NCc3ccccn3)CC2)cc1
inhibition (INH) (J774.A1 [1]): 35.94%
inhibition (INH) (J774.A1 [2]): 44.03%

O=[N+]([O-])c1cccc(CN2CCN(CCS(=O)(=O)Nc3ccc4ncccc4c3)CC2)c1
inhibition (INH) (J774.A1 [1]): 23.97%
inhibition (INH) (J774.A1 [2]): 54.36%

O=[N+]([O-])c1ccc(N2CCN(CCS(=O)(=O)NCc3ccccn3)CC2)cc1
inhibition (INH) (J774.A1 [1]): 51.16%
inhibition (INH) (J774.A1 [2]): 60.1%

COc1ccc(NS(=O)(=O)CCN2CCN(Cc3ccccc3)CC2)cn1
inhibition (INH) (J774.A1 [1]): 16.24%
inhibition (INH) (J774.A1 [2]): 13.57%

O=[N+]([O-])c1cccc(CN2CCN(c3ccc(S(=O)(=O)NCc4ccccn4)cc3[N+](=O)[O-])CC2)c1
IC50 (J774.A1 [3]): 1.38 µM
Activity (J774.A1 [4]): inactive
inhibition (INH) (J774.A1 [1]): 43.51%
inhibition (INH) (J774.A1 [2]): 71.33%
IC50 (J774.A1 [5]): 3.99 µM

O=C(CCN1CCN(Cc2ccccc2)CC1)NCc1ccccn1
inhibition (INH) (J774.A1 [1]): 40.52%
inhibition (INH) (J774.A1 [2]): 31%

O=C(CN1CCN(Cc2cccc([N+](=O)[O-])c2)CC1)Nc1cccc2ccccc12
inhibition (INH) (J774.A1 [1]): 49.62%
inhibition (INH) (J774.A1 [2]): 36.57%

O=S(=O)(CCN1CCN(Cc2ccccc2)CC1)Nc1cccc2ccccc12
inhibition (INH) (J774.A1 [1]): 38.58%
inhibition (INH) (J774.A1 [2]): 36.45%

O=[N+]([O-])c1ccc(CN2CCN(CCS(=O)(=O)NCc3ccccn3)CC2)cc1
inhibition (INH) (J774.A1 [1]): 41.37%
inhibition (INH) (J774.A1 [2]): 49.16%

O=[N+]([O-])c1ccc(CN2CCN(c3ccc(S(=O)(=O)NCc4ccccn4)cc3[N+](=O)[O-])CC2)cc1
IC50 (J774.A1 [3]): 1.32 µM
inhibition (INH) (J774.A1 [1]): 42.19%
inhibition (INH) (J774.A1 [2]): 69.93%
IC50 (J774.A1 [5]): 8.59 µM
Activity (J774.A1 [6]): Active
Activity (J774.A1 [7]): Active

O=C(CN1CCN(Cc2cccc([N+](=O)[O-])c2)CC1)NCc1ccccn1
inhibition (INH) (J774.A1 [1]): 39.82%
inhibition (INH) (J774.A1 [2]): 21.88%

O=C(CN1CCN(c2ncccn2)CC1)NCc1ccccn1
inhibition (INH) (J774.A1 [1]): 38.32%
inhibition (INH) (J774.A1 [2]): 40.7%

CC(=O)Nc1ncc(CN2CCN(CCS(=O)(=O)Nc3cccc4ccccc34)CC2)s1
inhibition (INH) (J774.A1 [1]): 25.56%
inhibition (INH) (J774.A1 [2]): 43.92%

COc1ccc(NC(=O)CN2CCN(c3ccc([N+](=O)[O-])cc3)CC2)cn1
inhibition (INH) (J774.A1 [1]): 35.31%
inhibition (INH) (J774.A1 [2]): 26.57%

COc1ccc(CN2CCN(c3ccc(S(=O)(=O)NCc4ccccn4)cc3[N+](=O)[O-])CC2)cc1
inhibition (INH) (J774.A1 [1]): 18.06%
inhibition (INH) (J774.A1 [2]): 53.8%

COc1ccc(NC(=O)CN2CCN(Cc3cccc([N+](=O)[O-])c3)CC2)cn1
inhibition (INH) (J774.A1 [1]): 41.2%
inhibition (INH) (J774.A1 [2]): 20.88%

O=C(CN1CCN(Cc2ccc([N+](=O)[O-])cc2)CC1)NCc1ccccn1
inhibition (INH) (J774.A1 [1]): 42.8%
inhibition (INH) (J774.A1 [2]): 36.43%

COc1ccc(CN2CCN(CCS(=O)(=O)Nc3ccc(OC)nc3)CC2)cc1
inhibition (INH) (J774.A1 [1]): 39.86%
inhibition (INH) (J774.A1 [2]): 55.78%

O=[N+]([O-])c1cccc(CN2CCN(CCS(=O)(=O)NCc3ccccn3)CC2)c1
inhibition (INH) (J774.A1 [1]): 38.96%
inhibition (INH) (J774.A1 [2]): 41.05%

O=C(CCN1CCN(Cc2ccccc2)CC1)Nc1cccc2ccccc12
inhibition (INH) (J774.A1 [1]): 55.28%
inhibition (INH) (J774.A1 [2]): 50.93%

COc1ccc(NC(=O)CN2CCN(c3ncccn3)CC2)cn1
inhibition (INH) (J774.A1 [1]): 47.96%
inhibition (INH) (J774.A1 [2]): 33.21%

O=C(CN1CCN(c2ncccn2)CC1)Nc1cccc2ccccc12
inhibition (INH) (J774.A1 [1]): 18.5%
inhibition (INH) (J774.A1 [2]): 9.078%

O=C(CCN1CCN(Cc2ccc([N+](=O)[O-])cc2)CC1)NCc1ccccn1
inhibition (INH) (J774.A1 [1]): 25.79%
inhibition (INH) (J774.A1 [2]): 36.81%

O=C(CN1CCN(c2ccc([N+](=O)[O-])cc2)CC1)NCc1ccccn1
inhibition (INH) (J774.A1 [1]): 57.51%
inhibition (INH) (J774.A1 [2]): 49.31%

O=[N+]([O-])c1ccc(N2CCN(CCS(=O)(=O)Nc3cccc4ccccc34)CC2)cc1
inhibition (INH) (J774.A1 [1]): 48.59%
inhibition (INH) (J774.A1 [2]): 54.08%

O=[N+]([O-])c1cccc(CN2CCN(CCS(=O)(=O)Nc3cccc4ccccc34)CC2)c1
inhibition (INH) (J774.A1 [1]): 48.04%
inhibition (INH) (J774.A1 [2]): 39.74%

COc1ccc(NC(=O)CN2CCN(Cc3ccccc3)CC2)cn1
inhibition (INH) (J774.A1 [1]): 34.1%
inhibition (INH) (J774.A1 [2]): 9.69%
